Results from US9981923B2, “1,2,3 Triazole antifungal agents and preparation thereof” (COUNCIL OF SCIENTIFIC & INDUSTRIAL RESEARCH, priority 2014, dated 2018).
≈ marks a conversion by molar mass, not a printed value. Where two headings read alike, the source gives them in different places.

Columns and labels:
pathogenic fungi = test: Antifungal activity, overall assessment of the microbroth dilution results; assay type: cell-based; conditions: based on the MIC results
Experimental: (§1) The synthesized compounds were evaluated for antifungal susceptibility by microbroth dilution method according to the recommendations of the Clinical Laboratory Standards Institute (CLSI 2008). Briefly, appropriate amount of compounds were dissolved in dimethyl sulfoxide to get 100× final strength. The stock was then diluted 1:50 in RPMI/YPG medium and 200 μl from this was added to the first row of a 96-well microtitre plate. The compounds were serially diluted two fold in successive wells to get a range of 1-128 μg/ml. Fungal yeast cells (˜2×10^3 cfu/mL), freshly grown in YPG broth in logarithmic phase, were suspended in the medium and inoculated (100 μl) in the wells of the plate. For filamentous fungi, 2×10^4 spores/mL were added. The microtitre plate was incubated for 48 h, and the absorbance was measured at 600 nm by using microtitre plate reader to assess cell growth.

ergosterol = test: Effect of the compounds on sterol profile (spectrophotometric ergosterol quantitation); assay type: cell-based, C. albicans ATCC 24433; conditions: for ergosterol depletion (sterol profile, height of absorbance peaks 220-300 nm): C. albicans ATCC 24433, 24 h, 0.5 MIC and MIC of the lead compounds; for inhibition of lanosterol 14 α-demethylase enzyme (concluded from ergosterol depletion): C. albicans ATCC 24433 sterol profile
Experimental: Inhibition of lanosterol 14 α-demethylase by azoles results in depletion of ergosterol. The depletion can be quantified by spectrophotometry. Briefly, Overnight grown C. albicans ATCC 24433 (1×10^6 cfu/ml) cells were inoculated in a series of flasks containing 50 ml of Yeast extract Peptone Glucose (YPG) broth containing […] of fluconazole per ml as well as 0.5 MIC and MIC of the lead compounds. The cultures were incubated for 24 h with shaking at 30° C. The stationary-phase cells were harvested by centrifugation […] and washed once with sterile distilled water. The net wet weight of the cell pellet was determined. Three milliliters of 25% alcoholic potassium hydroxide solution (25 g of […] and 35 ml of sterile distilled water, brought to 100 ml with 100% ethanol), was added to 125 mg of pellet and vortex mixed for 1 min. Cell suspensions were transferred to sterile borosilicate glass screw-cap tubes and were incubated in an 85° C. water bath for 1 h. Following incubation, tubes were allowed to cool to room temperature. Sterols were then extracted by addition of a mixture of 1 ml of sterile distilled water and 3 ml of n-heptane followed by vigorous vortex mixing for 3 min. The heptane layer was transferred to a clean borosilicate glass screw-cap tube. The sterol extract was scanned spectrophotometrically between 220 and 300 nm with a Spectrophotometer.

[1] = system: Cryptococcus neoformans ATCC 34664; test: Antifungal susceptibility by microbroth dilution (CLSI); assay type: cell-based
Experimental: as §1

[2] = system: Aspergillus niger ATCC 10578; test: as above; assay type: cell-based
Experimental: as §1

[3] = system: Aspergillus fumigatus MCC 1046; test: as above; assay type: cell-based
Experimental: as §1

[4] = system: Candida albicans ATCC 10231; test: as above; assay type: cell-based
Experimental: as §1

[5] = system: Candida albicans ATCC 24433; test: as above; assay type: cell-based
Experimental: as §1

[6] = system: Candida glabrata NCYC 388; test: as above; assay type: cell-based
Experimental: as §1

[7] = system: reactive oxygen species (ROS); test: ROS production using dichlorofluorescin diacetate dye; assay type: cell-based; conditions: C. albicans ATCC 24433, dichlorofluorescin diacetate dye
Experimental: Apart from lanosterol 14 a-demethylase inhibition, few azoles like miconazole are known to exert their antifungal action by reactive oxygen species (ROS) generation. Therefore ROS production in C. albicans ATCC 24433 was evaluated for these compounds by using dichlorofluorescin diacetate dye. […] ROS can damage a wide range of molecules, including nucleic acids, proteins and lipids, can cause apoptosis, necrotic death and with this wide range of targets it is difficult to determine which events lead to loss of viability of cells following damage.

C. tropicalis ATCC 750 = test: Antifungal susceptibility by microbroth dilution (CLSI); assay type: cell-based; conditions: Candida tropicalis, ATCC750; Table 2
Experimental: as §1

[8] = Cryptococcus neoformans, ATCC34664, Table 1, 48 h, >90% inhibition of growth, read-out: MIC
[9] = Aspergillus niger, ATCC10578, Table 1, 48 h, >90% inhibition of growth, read-out: MIC
[10] = Aspergillus fumigatus, MCC1046, Table 1, 48 h, >90% inhibition of growth, read-out: MIC
[11] = Candida albicans, ATCC10231, Table 1, 48 h, >90% inhibition of growth, read-out: MIC
[12] = Candida albicans, ATCC24433, Table 1, 48 h, >90% inhibition of growth, range 1-128 μg/ml, read-out: MIC
[13] = Nakaseomyces glabratus, NCYC388, Table 1, 48 h, >90% inhibition of growth, read-out: MIC
[14] = Table 1, 48 h, >90% inhibition of growth

| Structure (SMILES) | melting point [°C] | MIC [1, 8] [µg/mL] | MIC [2, 9] [µg/mL] | MIC [3, 10] [µg/mL] | MIC [5, 12] [µg/mL] | MIC [6, 13] [µg/mL] | further results |
| --- | --- | --- | --- | --- | --- | --- | --- |
| CCC(O)(Cc1cn(-c2ccc(Cl)cc2O)nn1)c1ccccc1 (stereo not drawn) [Compound 2gb, 5-Chloro-2-(4-(2-hydroxy-2-phenylbutyl)-1H-1,2,3-triazol-1-yl)phenol] | 129 to 131 | 8 (≈ 23.3 µM) | > 128 | 8 (≈ 23.3 µM) | 16 (≈ 46.5 µM) | 8 (≈ 23.3 µM) | antifungal activity, overall assessment (pathogenic fungi): promising molecules; ergosterol depletion (sterol profile, height of absorbance peaks 220-300 nm) (ergosterol): most effective; MIC [4, 11]: 16 µg/mL (≈ 46.5 µM) |
| OC(Cn1cncn1)(Cn1cncn1)c1ccc(F)cc1F [Fluconazole, reference compound] |  | 32 (≈ 104 µM) |  |  | 2 (≈ 6.53 µM) |  | ergosterol depletion (sterol profile, height of absorbance peaks 220-300 nm) (ergosterol): dose-dependent decrease in the height of the absorbance peaks; MIC ([2]; Aspergillus niger, ATCC10578, 48 h): > 128 µg/mL; MIC ([3]; Aspergillus fumigatus, MCC1046, 48 h): > 128 µg/mL; MIC [4, 11]: 8 µg/mL (≈ 26.1 µM); MIC ([6]; Nakaseomyces glabratus, NCYC388, 48 h): > 128 µg/mL |
| Oc1ccc(Cl)cc1-n1cc(CC(O)c2ccccc2)nn1 (stereo not drawn) [Compound 1ea, 4-Chloro-2-(4-(2-hydroxy-2-phenylethyl)-1H-1,2,3-triazol-1-yl)phenol] | 148 to 150 | > 128 | 64 (≈ 203 µM) | 128 (≈ 405 µM) | 64 (≈ 203 µM) | 128 (≈ 405 µM) |  |
| Oc1cc(Cl)ccc1-n1cc(CC(O)(c2ccccc2)c2ccccc2)nn1 [Compound 2ib, 5-Chloro-2-(-4-(2-hydroxy-2,2-diphenylethyl)-1H-1,2,3-triazol-1-yl)phenol] | 210 to 212 |  |  |  |  |  |  |
| Oc1ccc(Cl)cc1-n1cc(CC(O)(c2ccccc2)c2ccccc2)nn1 [Compound 2ia, 4-Chloro-2-(4-(2-hydroxy-2,2-diphenylethyl)-1H-1,2,3-triazol-1-yl)phenol] | 194 to 196 | > 128 | > 128 | 128 (≈ 327 µM) | 128 (≈ 327 µM) | 128 (≈ 327 µM) |  |
| Oc1cc(Cl)ccc1-n1cc(CC(O)c2ccccc2)nn1 (stereo not drawn) [Compound 1eb, 5-Chloro-2-(4-(2-hydroxy-2-phenylethyl)-1H-1,2,3-triazol-1-yl)phenol] | 171 to 172 |  |  |  |  |  |  |
| CC(O)(Cc1cn(-c2ccc(Cl)cc2O)nn1)c1cc(C(F)(F)F)cc(C(F)(F)F)c1 (stereo not drawn) [Compound 2sb, 2-(4-(2-(3,5-Bis(trifluoromethyl)phenyl)-2-hydroxypropyl)-1H-1,2,3-triazol-1-yl)-5-chlorophenol] | 156 to 158 |  |  |  |  |  |  |
| CCC(O)(c1ccccc1)c1cn(-c2ccc(Cl)cc2O)nn1 (stereo not drawn) [Compound 1db] |  |  |  |  |  |  | antifungal activity, overall assessment (pathogenic fungi): promising molecules; MIC [1, 14]: 16 µg/mL (≈ 48.5 µM); MIC [2, 14]: >128 µg/mL; MIC [3, 14]: >128 µg/mL; MIC [4, 14]: 32 µg/mL (≈ 97 µM); MIC ([5]; Table 1, 48 h, >90% inhibition of growth, range 1-128 μg/ml): 16 µg/mL (≈ 48.5 µM); MIC [6, 14]: 8 µg/mL (≈ 24.3 µM) |
| CCC(O)(Cc1cn(-c2cc(Cl)ccc2O)nn1)c1ccccc1 (stereo not drawn) [Compound 2ga, 4-Chloro-2-(4-(2-hydroxy-2-phenylbutyl)-1H-1,2,3-triazol-1-yl)phenol] | 153 to 155 | 16 (≈ 46.5 µM) | > 128 | 32 (≈ 93.1 µM) | 16 (≈ 46.5 µM) | 8 (≈ 23.3 µM) | antifungal activity, overall assessment (pathogenic fungi): promising molecules; inhibition of lanosterol 14 α-demethylase enzyme (concluded from ergosterol depletion) (ergosterol): potent inhibitors; MIC [4, 11]: 16 µg/mL (≈ 46.5 µM) |
| Oc1ccc(Cl)cc1-n1cc(CC(O)c2cc(C(F)(F)F)cc(C(F)(F)F)c2)nn1 (stereo not drawn) [Compound 1ja, 2-(-4-(2-(3,5-Bis(trifluoromethyl)phenyl)-2-hydroxyethyl)-1,2,3-triazol-1-yl)-4-chlorophenol] | 181 to 183 |  |  |  |  |  |  |
| Oc1ccc(Cl)cc1-n1cc(C(O)c2cc(C(F)(F)F)cc(C(F)(F)F)c2)nn1 (stereo not drawn) [Compound 1ba, 2-(4-((3,5-Bis(trifluoromethyl)phenyl)(hydroxy)methyl)-1H-1,2,3-triazol-1-yl)-4-chlorophenol] | 211 to 213 | 16 (≈ 36.6 µM) | > 128 | > 128 | 128 (≈ 292 µM) | 128 (≈ 292 µM) |  |
| Cc1cc(C)cc(C(O)c2cn(-c3cc(Cl)ccc3O)nn2)c1 (stereo not drawn) [Compound 1aa, 4-Chloro-2-(4-((3,5-dimethylphenyl)(hydroxy)methyl)-1H-1,2,3-triazol-1-yl)phenol] | 191 to 193 | 32 (≈ 97 µM) | 64 (≈ 194 µM) | 64 (≈ 194 µM) | 64 (≈ 194 µM) | 32 (≈ 97 µM) |  |
| CCCCC(O)(Cc1cn(-c2cc(Cl)ccc2O)nn1)c1ccccc1 (stereo not drawn) [Compound 2ha, 4-chloro-2-(4-(2-hydroxy-2-phenylhexyl)-1H-1,2,3-triazol-1-yl)phenol] | 165 to 167 |  |  |  |  |  |  |
| CC(O)(c1ccccc1)c1cn(-c2cc(Cl)ccc2O)nn1 (stereo not drawn) [Compound 2ca] |  |  |  |  |  |  | inhibition of lanosterol 14 α-demethylase enzyme (concluded from ergosterol depletion) (ergosterol): potent inhibitors |
| CC(O)(Cc1cn(-c2ccc(Cl)cc2O)nn1)c1ccccc1 (stereo not drawn) [Compound 2fb, 5-Chloro-2-(4-(2-hydroxy-2-phenylpropyl)-1H-1,2,3-triazol-1-yl)phenol] | 189 to 190 |  |  |  |  |  |  |
| Oc1cc(Cl)ccc1-n1cc(CC(O)c2cc(C(F)(F)F)cc(C(F)(F)F)c2)nn1 (stereo not drawn) [Compound 1jb, 2-(4-(2-(3,5-Bis(trifluoromethyl)phenyl)-2-hydroxyethyl)-1H-1,2,3-triazol-1-yl)-5-chlorophenol] | 192 to 194 |  |  |  |  |  |  |
| CC(O)(Cc1cn(-c2cc(Cl)ccc2O)nn1)c1ccccc1 (stereo not drawn) [Compound 2fa, 4-Chloro-2-(4-(2-hydroxy-2-phenylpropyl)-1H-1,2,3-triazol-1-yl)phenol] |  | 16 (≈ 48.5 µM) | > 128 | 8 (≈ 24.3 µM) | 16 (≈ 48.5 µM) | 8 (≈ 24.3 µM) | antifungal activity, overall assessment (pathogenic fungi): promising molecules; ROS generation [7]: dose dependent increase in ROS generation; MIC [4, 11]: 16 µg/mL (≈ 48.5 µM) |
| CC(O)(Cc1cn(-c2ccc(Cl)cc2O)nn1)c1ccc(Cl)cc1 (stereo not drawn) [Compound 3eb, 5-Chloro-2-(4-(2-(4-chlorophenyl)-2-hydroxypropyl)-1H-1,2,3-triazol-1-yl)phenol] |  |  |  |  |  |  | MIC ([1]; Cryptococcus neoformans, ATCC34664, Table 2, read-out: MIC values): 32 µg/mL (≈ 87.9 µM); MIC ([2]; Aspergillus niger, ATCC10578, Table 2, read-out: MIC values): 64 µg/mL (≈ 176 µM); MIC ([3]; Aspergillus fumigatus, MCC1046, Table 2, read-out: MIC values): 64 µg/mL (≈ 176 µM); MIC ([4]; Candida albicans, ATCC10231, Table 2, read-out: MIC values): 16 µg/mL (≈ 43.9 µM); MIC ([5]; Candida albicans, ATCC24433, Table 2, read-out: MIC values): 32 µg/mL (≈ 87.9 µM); MIC ([6]; Nakaseomyces glabratus, NCYC388, Table 2, read-out: MIC values): 32 µg/mL (≈ 87.9 µM); MIC (C. tropicalis ATCC 750): 64 µg/mL (≈ 176 µM) |
| CC(O)(c1ccccc1)c1cn(-c2ccc(Cl)cc2O)nn1 (stereo not drawn) [Compound 2cb, 5-Chloro-2-(4-(1-hydroxy-1-phenylethyl)-1H-1,2,3-triazol-1-yl)phenol] | 232 to 234 |  |  |  |  |  | ergosterol depletion (sterol profile, height of absorbance peaks 220-300 nm) (ergosterol): no ergosterol depletion was observed |
